Where a name gives a salt, the structure may show the parent alone.
How the values were obtained:
Type in all cases: cell-based
Escherichia coli DH5α = test: Effect of biological buffers with or without protamine on the growth of Escherichia coli DH5α; details: buffer without protamine; starting inoculum 10^7 cells; mean of three replicates
Protocol: (§1) All bacterial strains are maintained as frozen stocks at −80° C. in TSB, Luria-Bertani broth.
(§2) Throughout the experiments strains are subcultured every 2 weeks on TSA (tryptic soy agar; 15 g l^−1 agar) or LBA (Luria-Bertani agar; 15 g l^−1 agar) depending upon the type of bacteria and experiment and kept at 4° C. The incubation temperature is 37° C. except for photo-heterotrophic bacteria (30° C.).
(§3) The growth curve is determined by measuring the optical density (OD), growth rate and doubling time. Additionally, the number of colony forming units is determined by counting bacterial spots.
(§4) Bacterial growth is monitored by recording the increase in optical density (OD) at 560 nm in a spectrophotometer (Ultrospec 1000, Pharmacia Biotech, England). Sterile medium is used as reference. […] At given times, 100 μl aliquots of the samples are removed and spread on corresponding agar plates. If necessary, the samples are diluted by factors between 10^2−10^8 to ensure good count ability. Colony forming unit determination (CFU/ml) is carried out in duplicate using a CCD camera module (Sony Corp., Japan) applying the BioProfil Software V 2000.01 (Vilber Lourmat, France).
(§5) A commercially available protamine from Salmon is obtained from Sigma Aldrich (Taufkirchen, Germany). A stock solution is prepared by dissolving protamine in distilled water. The solution is then sterilized with Rotabilo© filter units (0.22 μm; Carl Roth, Karlsruhe, Germany) and stored at −20° C. until use.
Determination of Bactericidal Effect of Biological Buffers With or Without Protamine on Gram-negative Bacteria
(§6) In all experiments the starting inoculum is 10^7 cells. The data shown are average means of three replicates.

[1] = test system: Micrococcus luteus DSM 348; test: Effect of biological buffers with or without protamine on the growth of Micrococcus luteus DSM 348; details: for μ (growth rate): buffer without protamine, pH of 8.0 (FIG. 4), starting inoculum 10^7 cells, mean of three replicates
Protocol: as §1, §2, §3, §4, §5
Determination of Bactericidal Effect of Biological Buffers With or Without Protamine on Gram-positive Bacteria
as §6

Pseudomonas fluorescens = test: Protamine tolerance of Pseudomonas fluorescens with a special phenotype
Escherichia coli = test: Growth of Escherichia coli in the presence of protamine

| Compound | td (doubling time) (Escherichia coli DH5α) | μ (growth rate) (Escherichia coli DH5α) | μ (growth rate) [1] | concentration of protamine needed for bacterial death on further addition of lysozyme ([1]; pH of 8.0, citrate + bicarbonate composition with protamine, relative to the amount needed without lysozyme) | effect of the composition additionally comprising protamine ([1]; pH of 8.0, citrate + bicarbonate composition) | protamine concentrations tolerated (Pseudomonas fluorescens) | protamine concentration at which the organism does not grow (Escherichia coli) |
| --- | --- | --- | --- | --- | --- | --- | --- |
| O=C(O)CC(O)(CC(=O)O)C(=O)O [0.4M citrate] | 3.75 h | 0.185 h⁻¹ | 0 h⁻¹ | – | – | – | – |
| lysozyme | – | – | – | 30% | – | – | – |
| protamine | – | – | – | – | bacterial death | more than 40 mg/ml | 1,5 mg/ml |
| O=C([O-])O.[Na+] [0.1M NaHCO3, NaHCO3] | 3.01 h | 0.230 h⁻¹ | 0 h⁻¹ | – | – | – | – |
